Source: ChEMBL document CHEMBL6120946, “From Hit to Lead: Discovery of First-In-Class Furanone Glycoside D228 Derived from Chimonanthus salicifolius for the Treatment of Inflammatory Bowel Disease” (J Med Chem, 2024)
pIC50: −log10 of the molar value. Active and inactive are the calls of the source. The calls are words filed in the database; no cut-off is given here.

Experiments:
[1] = tested on: B-cell line; assay: Immunosuppressive activity in mouse B-lymphocyte assessed as reduction in LPS-induced cell proliferation incubated for 48 hrs; format: functional, cell-based
[2] = Cytotoxicity against mouse Splenocyte by MTT assay; format: toxicity, cell-based; conditions: splenocytes
[3] = Immunosuppressive activity in mouse T-lymphocyte assessed as reduction in concanavalin A-induced cell proliferation incubated for 48 hrs; format: functional, cell-based
[4] = tested on: Mus musculus; assay: Antiinflammatory activity in DSS-induced male C57BL/6 mouse model of inflammatory bowel disease assessed as increase in colon length at 250 mg/kg/day, po via gavage measured upto 14 days relative to control; format: functional; conditions: time <= 14 day
[5] = tested on: Mus musculus; assay: Antiinflammatory activity in male C57BL/6 mouse model of inflammatory bowel disease assessed as recovery of DSS-induced body weight loss at 40 mg/kg/day, po via gavage measured after 14 days relative to control; format: functional; conditions: time 14 day
[6] = tested on: Mus musculus; assay: Antiinflammatory activity in DSS-induced male C57BL/6 mouse model of inflammatory bowel disease assessed as restoration of colon length at 40 mg/kg/day, po via gavage measured after 14 days relative to control; format: functional; conditions: time 14 day
[7] = tested on: Mus musculus; assay: Antiinflammatory activity in DSS-induced male C57BL/6 mouse model of inflammatory bowel disease assessed as reduction in weight loss at 7.5 to 15 mg/kg/day, po via gavage measured upto 14 days; format: functional, organism-based; conditions: dose 7.5-15 mg/kg/day, time <= 14.0 day
[8] = tested on: Mus musculus; assay: Antiinflammatory activity in DSS-induced male C57BL/6 mouse model of inflammatory bowel disease assessed as reduction in diarrhea at 7.5 to 15 mg/kg/day, po via gavage measured upto 14 days; format: functional, organism-based; conditions: dose 7.5-15 mg/kg/day, time <= 14.0 day
[9] = tested on: Mus musculus; assay: Antiinflammatory activity in DSS-induced male C57BL/6 mouse model of inflammatory bowel disease assessed as reduction of bloody stool at 7.5 to 15 mg/kg/day, po via gavage measured upto 14 days; format: functional, organism-based; conditions: dose 7.5-15 mg/kg/day, time <= 14.0 day
[10] = tested on: Mus musculus; assay: Antiinflammatory activity in DSS-induced male C57BL/6 mouse model of inflammatory bowel disease assessed as increase in colon length at 15 mg/kg/day, po via gavage measured upto 14 days relative to control; format: functional; conditions: time <= 14 day
[11] = tested on: Mus musculus; assay: Antiinflammatory activity in DSS-induced male C57BL/6 mouse model of inflammatory bowel disease assessed as increase in colon length at 7.5 mg/kg/day, po via gavage measured upto 14 days relative to control; format: functional; conditions: time <= 14 day
[12] = Selectivity ratio of CC50 for cytotoxicity against mouse Splenocyte to IC50 for immunosuppressive activity in mouse B-lymphocyte; format: toxicity; conditions: splenocytes (CC50) and B-lymphocytes (IC50)
[13] = Selectivity ratio of CC50 for cytotoxicity against mouse Splenocyte to IC50 for immunosuppressive activity in mouse T-lymphocyte; format: toxicity; conditions: splenocytes (CC50) and T-lymphocytes (IC50)
[14] = tested on: Mus musculus; assay: Antiinflammatory activity in DSS-induced male C57BL/6 mouse model of inflammatory bowel disease assessed as recovery from body weight loss at 40 mg/kg/day, po measured after 7 days; format: functional, organism-based; conditions: time 7.0 day
[15] = tested on: Mus musculus; assay: Antiinflammatory activity in DSS-induced male C57BL/6 mouse model of inflammatory bowel disease assessed as recovery from body weight loss at 40 mg/kg/day, po measured after 7 days relative to control; format: functional; conditions: time 7 day
[16] = tested on: Mus musculus; assay: Antiinflammatory activity in DSS-induced male C57BL/6 mouse model of inflammatory bowel disease assessed as recovery in colon length at 40 mg/kg/day, po measured after 7 days relative to control; format: functional; conditions: time 7 day

With `C/C=C/C[C@@H](C)[C@@H](O)[C@H]1C(=O)N[C@@H](CC)C(=O)N(C)CC(=O)N(C)[C@@H](CC(C)C)C(=O)N[C@@H](C(C)C)C(=O)N(C)[C@@H](CC(C)C)C(=O)N[C@@H](C)C(=O)N[C@H](C)C(=O)N(C)[C@@H](CC(C)C)C(=O)N(C)[C@@H](CC(C)C)C(=O)N(C)[C@@H](C(C)C)C(=O)N1C` [CYCLOSPORINE] as the compound, how does the pIC50 [1] read?
The pIC50 was 6.34.

With `CC1=C(O)C(=O)C(=C2CCNCC2)O1` as the compound, how does the CC50 [2] read?
Its CC50 is 205 µM.

What about the pIC50 [1] of the same compound?
The pIC50 was < 4.00.

And the pIC50 [3]?
Its pIC50 is < 4.00.

With `O=C(O)c1cc(/N=N/c2ccc(S(=O)(=O)Nc3ccccn3)cc2)ccc1O` [SULFASALAZINE] as the compound, how does the Activity [4] read?
Its Activity is 86.7%.

And the Activity [5]?
Its Activity is 24%.

What about the Activity [6] of the same compound?
The Activity was 9.5%.

Which results are given for `CC1=C(O)C(=O)C(=C2CCCC2)O1`?
CC50 [2]: 248 µM; pIC50 [1]: < 4.00; pIC50 [3]: < 4.00; Activity [7]: Active; Activity [8]: Active; Activity [9]: Active; Activity [10]: 98.4%; Activity [11]: 99.2%

With `COC(=O)[C@H]1O[C@@H](OC2=C(C)OC(=C(C)C)C2=O)[C@H](OC(C)=O)[C@@H](OC(C)=O)[C@@H]1OC(C)=O` as the compound, how does the CC50 [2] read?
Its CC50 is 212 µM.

And the pIC50 [1]?
Its pIC50 is < 4.00.

And the pIC50 [3]?
The pIC50 was < 4.00.

What about the Activity [5] of the same compound?
The Activity was 44.8%.

What about the Activity [6] of the same compound?
The Activity was 9.5%.

With `CC1=C(O)C(=O)C(=C2CCOCC2)O1` as the compound, how does the CC50 [2] read?
The CC50 was 232 µM.

What about the pIC50 [1] of the same compound?
The pIC50 was < 4.00.

What about the pIC50 [3] of the same compound?
The pIC50 was < 4.00.

For `CC(=O)OC[C@H]1O[C@@H](OC2=C(C)OC(=C3CCNCC3)C2=O)[C@H](OC(C)=O)[C@@H](OC(C)=O)[C@@H]1OC(C)=O`, which CC50 [2] is on record?
Its CC50 is 15.5 µM.

And the pIC50 [1]?
Its pIC50 is 4.39.

What about the selectivity ratio [12] of the same compound?
The selectivity ratio was 0.37.

And the pIC50 [3]?
The pIC50 was 4.54.

What about the selectivity ratio [13] of the same compound?
Its selectivity ratio is 0.8.

What about the Activity [14] of the same compound?
Its Activity is “Active”.

What about the Activity [15] of the same compound?
The Activity was 28%.

What about the Activity [16] of the same compound?
The Activity was 52.9%.

Which results are given for `CC(=O)OC[C@H]1O[C@@H](OC2=C(C)OC(=C3CCCCC3)C2=O)[C@H](OC(C)=O)[C@@H](OC(C)=O)[C@@H]1OC(C)=O`?
CC50 [2]: 35.6 µM; pIC50 [1]: 4.27; selectivity ratio [12]: 0.79; pIC50 [3]: 2.33; selectivity ratio [13]: 0.92; Activity [14]: Active; Activity [15]: 30.7%; Activity [16]: 54.8%
